Values of other authors, collected in US20070042049A1, “Nanoparticulate benidipine compositions” (Elan Pharma International, Limited, priority 2005, published 2007).
Where a name gives a salt, the structure may show the parent alone. Read-outs that look alike come from different tables or passages of the source.

## COC(=O)C1=C(C)NC(C)=C(C(=O)O[C@@H]2CCCN(Cc3ccccc3)C2)C1c1cccc([N+](=O)[O-])c1 (stereo in doubt) [Benidipine hydrochloride]
In acetic anhydride
  solubility: slightly soluble
In dimethylformamide
  solubility: freely soluble
In ethanol
  solubility: soluble
In formic acid
  solubility: very soluble
In methanol
  solubility: soluble
In water
  solubility: relatively insoluble
